In ChEMBL document CHEMBL1201862, “PubChem BioAssay data set” (2004):
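Following 48 hours of exposure in 96-well plates, responses at five concentrations were used to interpolate endpoints linearly. GI50 is the concentration that inhibits growth by half.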 Active and inactive are the calls of the source. No stated cut-off is given here; in the data, active = GI50 up to about 1.1 µM and inactive = higher.

Columns and labels:
Experiment in all cases: growth of human tumour cells (NCI), 48 h
NCI-H23 = system: NCI-H23
HCT-15 = system: HCT-15
MDA-N = system: MDA-N
MOLT-4 = system: MOLT-4
K562 = system: K562
EKVX = system: EKVX
Hs-578T = system: Hs-578T
SK-MEL-28 = system: SK-MEL-28
SK-MEL-2 = system: SK-MEL-2
RXF 393 = system: RXF 393
UACC-257 = system: UACC-257
SW-620 = system: SW-620
T47D = system: T47D
A549 = system: A549
U-251 = system: U-251
ACHN = system: ACHN
MDA-MB-435 = system: MDA-MB-435
OVCAR-5 = system: OVCAR-5
SK-OV-3 = system: SK-OV-3
OVCAR-8 = system: OVCAR-8

Row | Compound | GI50 (NCI-H23) | GI50 (HCT-15) | GI50 (MDA-N) | GI50 (MOLT-4) | GI50 (K562) | GI50 (EKVX) | GI50 (Hs-578T) | GI50 (SK-MEL-28) | GI50 (SK-MEL-2) | GI50 (RXF 393) | GI50 (UACC-257) | GI50 (SW-620) | GI50 (T47D) | GI50 (A549) | GI50 (U-251) | GI50 (ACHN) | GI50 (MDA-MB-435) | GI50 (OVCAR-5) | GI50 (SK-OV-3) | GI50 (OVCAR-8)
1 | N/C(S)=N/N=C/c1ncccc1O | 0.597 µM (active) | 1.5 µM | 3.77 µM (inactive) | 0.787 µM (active) | 1.83 µM (inactive) | 2.35 µM (inactive) | 30.8 µM (inactive) | 4.29 µM (inactive) | 6.84 µM (inactive) | 0.843 µM (active) | 2.49 µM (inactive) | 1.64 µM (inactive) | 3.14 µM (inactive) | 2.32 µM (inactive) | 1.73 µM (inactive) | 0.766 µM (active) | 3.81 µM (inactive) | 3.1 µM (inactive) | 4.21 µM (inactive) | –
2 | N=C(N)NC(=N)Nc1ccc(S(=O)(=O)O)cc1 | > 100 µM (inactive) | > 100 µM | > 100 µM (inactive) | – | > 100 µM (inactive) | > 100 µM (inactive) | > 100 µM (inactive) | > 100 µM (inactive) | > 100 µM (inactive) | > 100 µM (inactive) | > 100 µM (inactive) | > 100 µM (inactive) | > 100 µM (inactive) | > 100 µM (inactive) | > 100 µM (inactive) | > 100 µM (inactive) | > 100 µM (inactive) | > 100 µM (inactive) | > 100 µM (inactive) | > 100 µM (inactive)
3 | Cc1nnc2n(c1=O)CCCN2C | > 100 µM (inactive) | > 100 µM | > 100 µM (inactive) | > 100 µM (inactive) | > 100 µM (inactive) | > 100 µM (inactive) | > 100 µM (inactive) | > 100 µM (inactive) | > 100 µM (inactive) | > 100 µM (inactive) | – | > 100 µM (inactive) | > 100 µM (inactive) | > 100 µM (inactive) | > 100 µM (inactive) | > 100 µM (inactive) | > 100 µM (inactive) | > 100 µM (inactive) | > 100 µM (inactive) | > 100 µM (inactive)
4 | O=C1OS2(OC(=O)c3cccc4cccc2c34)c2ccccc21 (stereo not drawn) | > 100 µM (inactive) | > 100 µM | > 100 µM (inactive) | > 100 µM (inactive) | > 100 µM (inactive) | > 100 µM (inactive) | > 100 µM (inactive) | > 100 µM (inactive) | > 100 µM (inactive) | > 100 µM (inactive) | > 100 µM (inactive) | > 100 µM (inactive) | > 100 µM (inactive) | > 100 µM (inactive) | > 100 µM (inactive) | > 100 µM (inactive) | > 100 µM (inactive) | > 100 µM (inactive) | – | > 100 µM (inactive)
5 | CCOC(=O)CCCNC(=O)CCCCC(=O)N(C)C | > 100 µM (inactive) | > 100 µM | > 100 µM (inactive) | > 100 µM (inactive) | > 100 µM (inactive) | > 100 µM (inactive) | > 100 µM (inactive) | > 100 µM (inactive) | > 100 µM (inactive) | – | > 100 µM (inactive) | > 100 µM (inactive) | > 100 µM (inactive) | > 100 µM (inactive) | > 100 µM (inactive) | > 100 µM (inactive) | > 100 µM (inactive) | > 100 µM (inactive) | > 100 µM (inactive) | > 100 µM (inactive)
6 | CC1S/C(=N/c2nnc(-c3ccccc3)o2)NC1=O (stereo not drawn) | 94.8 µM (inactive) | 30.4 µM | 32.7 µM (inactive) | 30.5 µM (inactive) | 48 µM (inactive) | 27 µM (inactive) | > 100 µM (inactive) | 74.6 µM (inactive) | 69.5 µM (inactive) | 61.7 µM (inactive) | 53.8 µM (inactive) | 46 µM (inactive) | 61.1 µM (inactive) | 37.6 µM (inactive) | 26.6 µM (inactive) | 46.5 µM (inactive) | 39.1 µM (inactive) | > 100 µM (inactive) | – | 43.6 µM (inactive)
7 | O=c1oc2ccc3ccccc3c2cc1-c1nc2ccccc2s1 | > 100 µM (inactive) | > 100 µM | > 100 µM (inactive) | – | > 20.6 µM (inactive) | > 100 µM (inactive) | > 100 µM (inactive) | > 100 µM (inactive) | > 100 µM (inactive) | > 100 µM (inactive) | > 100 µM (inactive) | > 100 µM (inactive) | > 66.7 µM (inactive) | > 23.1 µM (inactive) | > 100 µM (inactive) | > 100 µM (inactive) | > 100 µM (inactive) | > 100 µM (inactive) | > 100 µM (inactive) | > 100 µM (inactive)
